The source made the active and inactive calls.
Key:
[1] = target: T1, Delta-type opioid receptor (Homo sapiens, UniProt P41143); assay: HTS Image-Based Screen for Antagonists of the DOR Receptor. [Related pubchem assays (depositor defined):AID1777, AID1785, AID1786, AID2133]; format: functional
Mu-type opioid receptor = Mu-type opioid receptor (Homo sapiens, UniProt P35372); assay: HTS Image-Based Screen for Agonists of the MOR Receptor. [Related pubchem assays (depositor defined):AID1777, AID1785, AID1786, AID2133]; format: functional;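 also: imaging of beta-arrestin GFP recruitment into spots after receptor activation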
[2] = target: T1, Delta-type opioid receptor; assay: HTS Image-Based Screen for Agonists of the DOR Receptor. [Related pubchem assays (depositor defined):AID1777, AID1786, AID2133]; format: functional
[3] = target: T2, Kappa-type opioid receptor (Homo sapiens, UniProt P41145); format: functional
T2 sequence (P41145 whole entry): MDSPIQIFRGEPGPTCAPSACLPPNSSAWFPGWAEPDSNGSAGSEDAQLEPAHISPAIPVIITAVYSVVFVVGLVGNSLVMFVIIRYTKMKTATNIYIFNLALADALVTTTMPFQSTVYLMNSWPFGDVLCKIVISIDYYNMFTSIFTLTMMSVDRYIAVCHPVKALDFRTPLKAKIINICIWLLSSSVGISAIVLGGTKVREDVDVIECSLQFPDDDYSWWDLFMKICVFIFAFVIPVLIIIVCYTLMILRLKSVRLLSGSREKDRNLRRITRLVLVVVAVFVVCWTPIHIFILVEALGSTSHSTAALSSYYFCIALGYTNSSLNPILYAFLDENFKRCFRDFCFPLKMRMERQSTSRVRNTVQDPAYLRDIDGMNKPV

[4] = target: T2, Kappa-type opioid receptor; format: functional; remark: listed apart in the source
[5] = target: T3, G-protein coupled receptor 55 (Homo sapiens, UniProt Q9Y2T6); assay: GPR55 antagonists blocking LPI-driven arrestin recruitment, primary screen, imaging, U2OS, beta-arrestin-GFP, LPI agonist (AID 2013); format: functional;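 also: antagonist potency measured as reduced agonist-driven arrestin aggregation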
T3 sequence (Q9Y2T6 whole entry): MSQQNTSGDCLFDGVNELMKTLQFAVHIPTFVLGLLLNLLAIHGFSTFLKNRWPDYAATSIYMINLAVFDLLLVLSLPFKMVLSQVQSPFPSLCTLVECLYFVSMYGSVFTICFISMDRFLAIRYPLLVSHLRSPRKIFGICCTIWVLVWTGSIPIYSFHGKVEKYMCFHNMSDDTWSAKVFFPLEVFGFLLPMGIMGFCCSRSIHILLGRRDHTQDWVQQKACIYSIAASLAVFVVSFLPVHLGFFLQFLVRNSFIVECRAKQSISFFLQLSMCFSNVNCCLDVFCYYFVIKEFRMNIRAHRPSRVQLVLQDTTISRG

Cannabinoid receptor 1 [6] = target: T4, Cannabinoid receptor 1 (Homo sapiens, UniProt P21554); assay: SAR analysis of antagonists of the Cannabinoid Receptor 1 using an Image-Based Assay - Set 2. [Related pubchem assays (depositor defined):AID2013, AID2026]; format: functional
T4 sequence (P21554 whole entry): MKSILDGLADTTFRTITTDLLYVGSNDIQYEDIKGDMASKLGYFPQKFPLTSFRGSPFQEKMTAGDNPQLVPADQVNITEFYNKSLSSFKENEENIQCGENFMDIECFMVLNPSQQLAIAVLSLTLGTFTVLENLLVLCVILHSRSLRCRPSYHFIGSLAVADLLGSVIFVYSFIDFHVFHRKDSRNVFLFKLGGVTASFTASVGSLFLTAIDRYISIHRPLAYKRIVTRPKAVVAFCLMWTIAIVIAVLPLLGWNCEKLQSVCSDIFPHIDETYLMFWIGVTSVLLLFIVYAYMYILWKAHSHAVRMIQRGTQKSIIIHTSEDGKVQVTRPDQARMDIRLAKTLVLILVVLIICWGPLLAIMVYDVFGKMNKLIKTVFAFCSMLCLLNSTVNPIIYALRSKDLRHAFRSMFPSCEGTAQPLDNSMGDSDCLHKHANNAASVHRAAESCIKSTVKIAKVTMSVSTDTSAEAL

[7] = target: T5, G-protein coupled receptor 35 (Homo sapiens, UniProt Q9HC97); assay: SAR analysis of Agonists of the GPR35 Receptor using an Image-Based Assay - Set 2. [Related pubchem assays (depositor defined):AID2013, AID2026]; format: functional
T5 sequence (Q9HC97 whole entry): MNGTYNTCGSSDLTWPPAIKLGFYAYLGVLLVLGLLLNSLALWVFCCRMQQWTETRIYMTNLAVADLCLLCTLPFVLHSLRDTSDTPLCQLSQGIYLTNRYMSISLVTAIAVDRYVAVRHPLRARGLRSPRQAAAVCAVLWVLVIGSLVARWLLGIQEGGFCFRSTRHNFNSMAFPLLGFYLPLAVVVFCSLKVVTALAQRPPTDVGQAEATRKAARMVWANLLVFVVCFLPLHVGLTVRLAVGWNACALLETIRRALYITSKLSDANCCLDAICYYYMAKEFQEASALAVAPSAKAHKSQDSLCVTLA

Cannabinoid receptor 2 [8] = target: T6, Cannabinoid receptor 2 (Homo sapiens, UniProt P34972); assay: SAR analysis of antagonists of the Cannabinoid Receptor 2 using an Image-Based Assay. [Related pubchem assays (depositor defined):AID2013, AID2026]; format: functional
T6 sequence (P34972 whole entry): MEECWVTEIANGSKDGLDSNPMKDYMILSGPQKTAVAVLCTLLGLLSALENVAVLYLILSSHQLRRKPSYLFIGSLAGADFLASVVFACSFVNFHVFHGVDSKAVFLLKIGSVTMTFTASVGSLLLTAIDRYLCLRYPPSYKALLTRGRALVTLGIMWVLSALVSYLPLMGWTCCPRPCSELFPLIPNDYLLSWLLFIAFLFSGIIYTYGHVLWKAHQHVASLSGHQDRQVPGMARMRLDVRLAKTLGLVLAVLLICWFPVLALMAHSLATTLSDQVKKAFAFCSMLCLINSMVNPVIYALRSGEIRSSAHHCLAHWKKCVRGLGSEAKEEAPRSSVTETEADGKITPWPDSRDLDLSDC

Cannabinoid receptor 1 [9] = target: T4, Cannabinoid receptor 1; assay: SAR analysis of agonists of the Cannabinoid Receptor 1 using an Image-Based Assay - Set 2. [Related pubchem assays (depositor defined):AID2013, AID2026]; format: functional
[10] = target: T5, G-protein coupled receptor 35; assay: SAR analysis of Antagonists of the GPR35 Receptor using an Image-Based Assay - Set 3. [Related pubchem assays (depositor defined):AID2013, AID2026]; format: functional
[11] = target: T3, G-protein coupled receptor 55; assay: GPR55 antagonist potency of analogs, SAR follow-up, imaging, U2OS, beta-arrestin-GFP, LPI agonist, set 2 (AID 2820); format: functional
Cannabinoid receptor 2 [12] = target: T6, Cannabinoid receptor 2; assay: SAR analysis of agonists of the Cannabinoid Receptor 2 using an Image-Based Assay. [Related pubchem assays (depositor defined):AID2013, AID2026]; format: functional
Beta-galactosidase = Beta-galactosidase (Escherichia coli, UniProt Q8VNN2); assay: beta-galactosidase enzyme inhibitors and activators, dose response, artefact control for CCR6 antagonist project, biochemical, E. coli enzyme, set 3 (AID 504712); format: functional
Apelin receptor = Apelin receptor (Homo sapiens, UniProt P35414); assay: APJ beta-arrestin recruitment antagonism, SAR follow-up, selectivity assay for CCR6 antagonist project, cell-based, luminescent, enzyme-fragment complementation (AID 588359); format: functional
[13] = target: Intestinal-type alkaline phosphatase (Mus musculus, UniProt P24822); assay: PubChem AID 488785; format: functional
[14] = target: T7, Alkaline phosphatase, tissue-nonspecific isozyme (Homo sapiens, UniProt P05186); assay: TNAP enzyme inhibition by screening hits, dose response, selectivity assay for mouse IAP inhibitor project, biochemical, human TNAP, uHTS hits (AID 488906); format: functional
T7 sequence (P05186 whole entry): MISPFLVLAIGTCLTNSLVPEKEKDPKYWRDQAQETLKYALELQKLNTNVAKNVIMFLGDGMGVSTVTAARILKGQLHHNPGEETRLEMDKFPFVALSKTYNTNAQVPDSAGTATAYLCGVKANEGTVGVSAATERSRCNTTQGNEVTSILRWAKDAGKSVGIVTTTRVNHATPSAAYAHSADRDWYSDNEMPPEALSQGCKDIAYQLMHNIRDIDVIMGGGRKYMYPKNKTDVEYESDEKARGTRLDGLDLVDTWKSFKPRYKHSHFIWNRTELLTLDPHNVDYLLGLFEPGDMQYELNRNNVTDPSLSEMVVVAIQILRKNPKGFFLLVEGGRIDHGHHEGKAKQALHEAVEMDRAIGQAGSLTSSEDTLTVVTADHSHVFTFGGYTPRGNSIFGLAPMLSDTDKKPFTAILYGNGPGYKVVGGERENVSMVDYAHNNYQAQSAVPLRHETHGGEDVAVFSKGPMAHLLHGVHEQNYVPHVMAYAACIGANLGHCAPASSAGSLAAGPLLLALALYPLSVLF

[15] = target: T8, Intestinal-type alkaline phosphatase (Homo sapiens, UniProt P09923); assay: inhibition of human intestinal alkaline phosphatase – biochemical, dose response (AID 488876); format: functional
T8 sequence (P09923 whole entry): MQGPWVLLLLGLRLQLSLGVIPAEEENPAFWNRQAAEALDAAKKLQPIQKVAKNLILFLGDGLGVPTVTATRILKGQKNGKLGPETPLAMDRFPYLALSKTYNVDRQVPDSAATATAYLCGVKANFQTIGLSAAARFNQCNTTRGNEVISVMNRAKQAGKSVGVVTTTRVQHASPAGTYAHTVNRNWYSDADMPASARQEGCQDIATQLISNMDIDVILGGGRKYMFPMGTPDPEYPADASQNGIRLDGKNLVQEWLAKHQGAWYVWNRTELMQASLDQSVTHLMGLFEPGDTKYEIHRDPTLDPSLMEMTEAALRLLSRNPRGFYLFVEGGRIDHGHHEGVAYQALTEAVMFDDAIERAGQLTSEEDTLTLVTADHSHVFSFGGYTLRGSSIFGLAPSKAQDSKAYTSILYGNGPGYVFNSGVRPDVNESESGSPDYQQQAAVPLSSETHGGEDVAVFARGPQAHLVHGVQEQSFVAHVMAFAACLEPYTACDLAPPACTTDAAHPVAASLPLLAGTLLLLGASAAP

[16] = inhibitors of firefly luciferase expression or activity, dose response, H4 neuroglioma cells, luminescence (AID 1990); format: functional, cell-based
[17] = Luminescence Cell-Based Dose Response HTS to Identify Inhibitors of 5'UTR Stem-Loop Driven Prion Protein mRNA Translation in H4 Neuroglioblastoma Cells. [Related pubchem assays: 1827 (Project Summary), 1813 (Primary HTS)]; format: functional
[18] = inhibitors of SNCA 5'UTR-driven reporter translation, confirmation, H4 neuroglioma cells, luminescence (AID 1988); format: functional, cell-based
[19] = target: Lysine-specific demethylase 4C (Homo sapiens, UniProt Q9H3R0); assay: GASC-1 (JMJD2C) histone demethylase inhibitors, dose response, biochemical, DELFIA europium, cherry-picked samples (AID 488835); format: functional
INS1 = assay: beta cell apoptosis inhibitors, cytokine rescue, dose response, luminescence, retest (AID 449756); format: functional, cell-based; details: Rattus norvegicus;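 also: cell death triggered by IL-1 beta plus TNF-alpha plus IFN-gamma mixture; protective hits raise ATP signal compared with cytokine alone wells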
[20] = target: T8, Intestinal-type alkaline phosphatase; assay: Dose Response confirmation of uHTS hits from a small molecule inhibitors of human intestinal alkaline phosphatase via a luminescent assay. [Related pubchem assays (depositor defined):AID2544, AID2574]; format: functional
[21] = target: T8, Intestinal-type alkaline phosphatase; assay: human intestinal alkaline phosphatase activators, dose response, biochemical, luminescence, uHTS hits (AID 463120); format: functional
SUMO-activating enzyme [22] = target: T9, SUMO-activating enzyme (Homo sapiens, UniProt Q9UBT2); assay: SUMOylation inhibitor hit validation, confirmation, SUMOylation inhibitor project, biochemical, AlphaScreen (AID 2018); format: functional
T9 sequence (Q9UBE0 whole entry): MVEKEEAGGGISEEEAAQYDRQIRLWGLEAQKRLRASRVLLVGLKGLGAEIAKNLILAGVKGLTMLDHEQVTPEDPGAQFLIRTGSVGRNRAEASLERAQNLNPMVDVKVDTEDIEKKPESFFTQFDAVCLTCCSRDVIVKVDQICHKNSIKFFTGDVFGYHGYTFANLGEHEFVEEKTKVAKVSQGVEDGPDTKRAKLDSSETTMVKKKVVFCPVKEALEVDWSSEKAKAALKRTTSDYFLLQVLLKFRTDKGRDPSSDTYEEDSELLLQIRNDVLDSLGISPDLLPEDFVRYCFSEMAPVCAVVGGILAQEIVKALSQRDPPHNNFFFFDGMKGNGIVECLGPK
T9 sequence (Q9UBT2 whole entry): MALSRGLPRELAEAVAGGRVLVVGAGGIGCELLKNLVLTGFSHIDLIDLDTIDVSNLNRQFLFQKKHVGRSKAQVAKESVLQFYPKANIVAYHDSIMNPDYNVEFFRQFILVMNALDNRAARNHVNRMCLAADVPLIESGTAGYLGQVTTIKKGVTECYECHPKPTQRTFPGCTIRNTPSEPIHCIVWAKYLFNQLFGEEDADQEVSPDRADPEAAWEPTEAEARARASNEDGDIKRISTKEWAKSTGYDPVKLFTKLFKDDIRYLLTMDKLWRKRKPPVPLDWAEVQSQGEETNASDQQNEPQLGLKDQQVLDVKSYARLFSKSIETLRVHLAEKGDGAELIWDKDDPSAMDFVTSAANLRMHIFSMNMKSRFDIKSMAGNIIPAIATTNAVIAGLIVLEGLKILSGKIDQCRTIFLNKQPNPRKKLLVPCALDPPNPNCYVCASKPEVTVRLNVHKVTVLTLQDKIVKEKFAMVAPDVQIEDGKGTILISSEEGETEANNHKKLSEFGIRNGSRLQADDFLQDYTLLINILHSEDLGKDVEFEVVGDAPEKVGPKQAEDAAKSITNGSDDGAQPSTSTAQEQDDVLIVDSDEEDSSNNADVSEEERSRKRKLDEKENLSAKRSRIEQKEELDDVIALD

SUMO-activating enzyme [23] = target: T9, SUMO-activating enzyme; assay: inhibitors of in vitro SUMOylation cascade, primary screen, biochemical, HTRF, uHTS (AID 2006); format: protein-complex assay
[24] = target: T10, Replicative DNA helicase DnaB (Mycobacterium tuberculosis, UniProt P9WMR3); assay: DnaB intein splicing inhibitors, dose response, biochemical, cell-free fluorescence (AID 449749); format: functional
T10 sequence (P9WMR3 whole entry): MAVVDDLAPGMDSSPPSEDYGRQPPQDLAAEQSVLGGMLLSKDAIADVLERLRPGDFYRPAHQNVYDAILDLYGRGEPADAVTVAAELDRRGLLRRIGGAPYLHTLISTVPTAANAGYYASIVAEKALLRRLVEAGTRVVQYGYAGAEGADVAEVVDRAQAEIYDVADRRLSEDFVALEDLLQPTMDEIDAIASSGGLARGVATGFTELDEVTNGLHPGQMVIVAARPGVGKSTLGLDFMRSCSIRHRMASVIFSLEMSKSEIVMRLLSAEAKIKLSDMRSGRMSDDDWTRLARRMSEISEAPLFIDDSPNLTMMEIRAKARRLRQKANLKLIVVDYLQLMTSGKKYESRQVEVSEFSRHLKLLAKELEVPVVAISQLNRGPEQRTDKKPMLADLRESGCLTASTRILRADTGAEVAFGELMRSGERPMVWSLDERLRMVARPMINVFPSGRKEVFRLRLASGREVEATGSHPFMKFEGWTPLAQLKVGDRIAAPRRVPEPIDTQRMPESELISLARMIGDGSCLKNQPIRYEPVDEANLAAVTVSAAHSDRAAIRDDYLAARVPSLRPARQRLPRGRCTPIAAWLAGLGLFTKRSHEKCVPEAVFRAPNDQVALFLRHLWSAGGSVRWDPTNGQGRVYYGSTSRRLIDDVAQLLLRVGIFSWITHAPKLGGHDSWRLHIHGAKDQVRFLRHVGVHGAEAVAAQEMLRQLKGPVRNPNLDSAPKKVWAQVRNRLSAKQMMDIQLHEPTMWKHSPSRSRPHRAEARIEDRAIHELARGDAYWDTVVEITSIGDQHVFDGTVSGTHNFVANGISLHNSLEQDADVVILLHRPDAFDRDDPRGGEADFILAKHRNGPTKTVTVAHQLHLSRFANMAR

Protein RecA = target: T11, Protein RecA (Mycobacterium tuberculosis, UniProt P9WHJ3); assay: Fluorescence Cell-Free Homogeneous Dose Retest to Identify Inhibitors of RecA-Intein Splicing Activity. [Related pubchem assays (depositor defined):AID2097, AID2223, AID489010, AID492950]; format: functional
T11 sequence (P9WHJ3 whole entry): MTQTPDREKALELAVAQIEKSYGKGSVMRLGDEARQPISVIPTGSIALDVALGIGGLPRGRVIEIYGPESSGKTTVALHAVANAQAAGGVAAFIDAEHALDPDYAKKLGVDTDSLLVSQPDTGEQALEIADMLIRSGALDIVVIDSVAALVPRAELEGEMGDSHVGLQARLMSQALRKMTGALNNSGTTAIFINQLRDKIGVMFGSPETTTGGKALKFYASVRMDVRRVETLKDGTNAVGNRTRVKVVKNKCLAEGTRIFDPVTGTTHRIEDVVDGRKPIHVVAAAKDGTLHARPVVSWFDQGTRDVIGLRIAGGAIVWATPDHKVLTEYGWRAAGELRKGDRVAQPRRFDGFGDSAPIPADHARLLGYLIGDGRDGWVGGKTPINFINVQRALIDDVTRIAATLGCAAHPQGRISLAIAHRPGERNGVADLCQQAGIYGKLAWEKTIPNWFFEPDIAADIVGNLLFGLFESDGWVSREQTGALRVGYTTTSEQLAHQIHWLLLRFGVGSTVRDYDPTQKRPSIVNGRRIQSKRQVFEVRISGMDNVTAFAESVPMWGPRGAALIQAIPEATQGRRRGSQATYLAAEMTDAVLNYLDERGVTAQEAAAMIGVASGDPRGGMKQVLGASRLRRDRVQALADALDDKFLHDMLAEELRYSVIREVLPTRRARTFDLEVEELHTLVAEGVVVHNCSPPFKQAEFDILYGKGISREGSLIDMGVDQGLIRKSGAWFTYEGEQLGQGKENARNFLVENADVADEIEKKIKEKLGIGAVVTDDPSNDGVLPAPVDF

Genome polyprotein = Genome polyprotein (dengue virus type 2, UniProt P29990); assay: Dengue-2 NS5 methyltransferase inhibitors, primary screen, biochemical, confirmation dose response (AID 588689); format: functional
Chain of Genome polyprotein (P29990 2492-3391 limits assumed): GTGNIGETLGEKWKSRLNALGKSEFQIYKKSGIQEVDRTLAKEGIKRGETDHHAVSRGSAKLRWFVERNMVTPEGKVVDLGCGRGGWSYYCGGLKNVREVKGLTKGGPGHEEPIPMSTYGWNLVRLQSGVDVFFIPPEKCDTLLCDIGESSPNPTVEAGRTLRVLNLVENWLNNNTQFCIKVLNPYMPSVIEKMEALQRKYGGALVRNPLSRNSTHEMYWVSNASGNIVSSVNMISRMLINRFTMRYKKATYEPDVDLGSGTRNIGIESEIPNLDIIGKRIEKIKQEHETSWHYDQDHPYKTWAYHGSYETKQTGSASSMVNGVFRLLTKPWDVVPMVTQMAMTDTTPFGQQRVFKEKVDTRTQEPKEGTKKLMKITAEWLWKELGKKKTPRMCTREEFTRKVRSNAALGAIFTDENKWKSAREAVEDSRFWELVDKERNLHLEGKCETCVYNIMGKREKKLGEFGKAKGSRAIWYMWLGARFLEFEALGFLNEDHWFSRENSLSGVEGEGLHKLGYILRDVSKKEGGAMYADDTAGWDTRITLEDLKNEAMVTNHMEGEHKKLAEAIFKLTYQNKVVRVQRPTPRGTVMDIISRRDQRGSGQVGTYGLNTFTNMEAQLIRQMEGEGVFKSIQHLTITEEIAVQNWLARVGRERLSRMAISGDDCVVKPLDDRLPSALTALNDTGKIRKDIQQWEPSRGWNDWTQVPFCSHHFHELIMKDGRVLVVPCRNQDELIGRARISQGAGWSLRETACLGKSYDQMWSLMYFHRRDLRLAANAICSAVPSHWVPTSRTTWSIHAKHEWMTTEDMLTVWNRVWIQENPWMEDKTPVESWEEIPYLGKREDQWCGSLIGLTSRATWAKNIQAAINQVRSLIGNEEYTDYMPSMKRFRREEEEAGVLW

T1 sequence (P41143 whole entry): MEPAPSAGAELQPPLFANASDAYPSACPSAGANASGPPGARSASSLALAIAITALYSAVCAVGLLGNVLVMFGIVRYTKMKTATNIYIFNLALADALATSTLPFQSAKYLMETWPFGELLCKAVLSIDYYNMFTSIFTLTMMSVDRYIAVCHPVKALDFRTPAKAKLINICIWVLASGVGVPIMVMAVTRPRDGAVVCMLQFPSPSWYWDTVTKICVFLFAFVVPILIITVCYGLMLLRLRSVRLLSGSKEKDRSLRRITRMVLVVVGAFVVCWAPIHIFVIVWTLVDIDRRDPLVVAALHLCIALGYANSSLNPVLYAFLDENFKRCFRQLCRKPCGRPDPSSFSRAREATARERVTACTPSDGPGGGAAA

With `COc1ccc(C[C@@H]2CN3C(=NC[C@@H]3C)N2CCNC(=O)c2ccc(C)c(Br)c2)cc1` the IC50 [1] was > 32 µM (inactive), the EC50 (Mu-type opioid receptor) was > 32 µM (inactive) and the EC50 [2] was > 32 µM (inactive). The EC50 [3] was < 500 nM and the EC50 [4] was 118 nM.

In the case of `Cc1ccc2c(c1)C(c1ccc(O)cc1)(c1ccc(O)cc1)C(=O)N2C`, the IC50 [5] is reported as 1.57 µM (active), the IC50 (Cannabinoid receptor 1 [6]) is reported as 5.74 µM (active) and the EC50 [7] is reported as > 32 µM (inactive). For the same compound, the IC50 (Cannabinoid receptor 2 [8]) was > 32 µM (inactive), the EC50 (Cannabinoid receptor 1 [9]) was > 32 µM (inactive) and the IC50 [10] was > 32 µM (inactive). For the same compound, the IC50 [11] was 1 µM (active) and the EC50 (Cannabinoid receptor 2 [12]) was > 32 µM (inactive).

In the case of `CC(C)(C)c1ccc2c(c1)OC(C(=O)N/N=C\c1ccccn1)CO2` (stereo not given), the IC50 (Beta-galactosidase) is reported as > 66.6 µM (inactive) and the IC50 (Apelin receptor) is reported as 28.8 µM (inactive).

In the case of `CCOC(=O)c1ccc(N2CCN(c3ccccc3F)CC2)c(NC(=O)Nc2ccccc2)c1`, the IC50 [13] is reported as 8.66 µM (active), the IC50 [14] is reported as > 100 µM (inactive) and the IC50 [15] is reported as > 100 µM (inactive).

For `O=C(CNC(=O)c1ccccc1O)N/N=C/c1cc(Br)ccc1OC(=O)/C=C/c1ccco1`, the EC50 [16] was 10.7 µM (active), the EC50 [17] was 7.28 µM (active) and the EC50 [18] was 9.47 µM (active). The AC50 [19] was 10.8 µM (active) and the AC50 (INS1) was 3.13 µM (active).

In the case of `CN1CCN(CCNC(=O)Cn2c(=O)c3cccn3c3ccc(F)cc32)CC1`, the IC50 [20] is reported as > 100 µM (inactive) and the EC50 [21] is reported as > 100 µM (inactive).

With `COc1cc(/C=C2\C(=O)N(c3ccc(S(N)(=O)=O)cc3)N=C2C)ccc1OC(=O)c1ccco1` the IC50 (SUMO-activating enzyme [22]) was 6.36 µM (active), the IC50 (SUMO-activating enzyme [23]) was > 100 µM (inactive) and the AC50 [24] was > 380 µM (inactive). The EC50 (Protein RecA) was 23.8 µM (active) and the IC50 (Genome polyprotein) was 73.2 µM (active).
